Tests used:
[1] = biological target: purified SHP1 (Homo sapiens, UniProt P29350); assay: Microscale thermophoresis (MST) binding assay; conditions: mean of triplicates; read-out: apparent dissociation constant Kd
Description: FIG. 3A: Volcano plot of reverse phase protein array (RPPA) data of mouse BMDCs treated with VitE (50 μg/ml) compared to those treated with vehicle control with tumor conditioned media (TCM) for 48 hours (n=3 independent samples). […] The grey dashed line indicates P-value of 0.05. FIG. 3B: t-SNEs by CyTOF and quantification comparing the intensity of pY564-SHP1 in TADCs from the vehicle-or VitE-treated EMT6 tumors at day 15 post-implantation. FIG. 3C: Top, SHP1 knockdown in BMDCs was effective. Bottom, CFSE-dilution analysis of OT-1 T cells co-cultured with OVA protein-pulsed BMDCs (ratio 10:1) with knockdown of SHP1 by siPtpn6 versus siCtrl (n=3). Right, quantification of OT-1 T-cell numbers under the indicated condition. FIG. 3D: The binding of VitE to purified SHP1 is analyzed by microscale thermophoresis (MST) binding assay. […] FIG. 3E: Relative tyrosine phosphatase activity of SHP1 immunoprecipitated from LPS (100 ng/ml)-activated DC2.4 cells in the presence of indicated doses of VitE (mean of triplicates). FIG. 3F: SHP1 tyrosine phosphatase activity in LPS (100 ng/ml)-activated BMDCs (n=6) treated with vehicle-or VitE (50 μg/ml). Error bars, s.e.m. ns, no significant. *P<0.05, **P<0.01. ***P<0.001, ****P<0.0001. […]

[2] = biological target: SHP1 immunoprecipitated from LPS-activated DC2.4 cells (UniProt P29351); assay: SHP1 phosphatase assay (EnzChek tyrosine phosphatase kit), dose-response; format: biochemical, mouse; conditions: SHP1 from LPS (100 ng/ml)-activated DC2.4 cells; read-out: inhibitory tyrosine phosphatase activity IC50
Text: FIG. 3A: […] FIG. 3B: t-SNEs by CyTOF and quantification comparing the intensity of […]-SHP1 in TADCs from the vehicle-or VitE-treated EMT6 tumors at day 15 post-implantation. FIG. 3C: Top, SHP1 knockdown in BMDCs was effective. Bottom, CFSE-dilution analysis of OT-1 T cells co-cultured with OVA protein-pulsed BMDCs (ratio 10:1) with knockdown of SHP1 by […]6 versus siCtrl (n=3). Right, quantification of OT-1 T-cell numbers under the indicated condition. FIG. 3D: The binding of VitE to purified SHP1 is analyzed by microscale thermophoresis (MST) binding assay. […] FIG. 3E: Relative tyrosine phosphatase activity of SHP1 immunoprecipitated from LPS (100 ng/ml)-activated DC2.4 cells in the presence of indicated doses of VitE (mean of triplicates). FIG. 3F: SHP1 tyrosine phosphatase activity in LPS (100 ng/ml)-activated BMDCs (n=6) treated with vehicle-or VitE (50 μg/ml). Error bars, s.e.m. ns, no significant. *P<0.05, **P<0.01. ***P<0.001, ****P<0.0001. We assessed the phosphatase activity of SHP1 by using the RediPlate 96 EnzChek Tyrosine Phosphatase Assay Kit (ThermoFisher). […] We placed beads into RediPlate wells and incubated them for 30 min at 25° C. before reading them for fluorescence. […] The inhibitor dose-response curves were analyzed using normalized IC50 regression curve fitting with control-based normalization.

[3] = tested on: human MoDCs; assay: DC activation markers on human MoDCs by flow cytometry; format: cell-based
Text: Human leukocyte concentrate (buffy coat) was collected from healthy blood donor volunteers by MD Anderson Blood Donor Center. Written informed consent was obtained from all participating blood donors and the use of anonymized leftover specimens for scientific purposes was approved by the Ethics Committee of the MD Anderson Cancer Center. For the generation of monocyte-derived dendritic cells (MoDCs), peripheral blood of healthy individuals was applied to a Ficoll gradient (BD), and mononuclear cells were freshly isolated and cultured in the dish in a humidified incubator for 1 hour to let monocytes adhere. After removing the medium with non-adherent cells, the adherent monocytes were collected through vigorous pipetting. […]
We assessed the expression of co-stimulatory molecules on human MoDCs treated with indicated dietary components and nutritional supplements including VitE (50 μg/ml). […] The mean fluorescence intensity (MFI) of each molecule was normalized to the MFI of the vehicle-treated group measured by flow cytometry. We then quantitated DC activation markers CD40, CD86, and HLA-DR on human MoDCs treated with vehicle or VitE (50 μg/ml) for 48 h in the presence of LPS (100 ng/ml), as calculated by relative mean fluorescence intensity (MFI) compared to controls.

[4] = tested on: B16-F10 melanoma; conditions: VitE and ICT combo-treatment
Description: For the melanoma tumor challenges, 2×10^5 B16-F10, B16-GMCSF, or B16-FLT3L cells were subcutaneously (s.c.) injected into the right flank of C57BL/6J mice on day 0.
Treatments were given as single agents or in combinations with the indicated regimens for each group. VitE (D-α-Tocopherol type VI, Cat.T1539, Sigma-Aldrich) was formulated in the vehicle (10% ethanol in sterile water) and administered by oral gavage once a day at a dose of 50 mg/kg body weight (100 μl at 10 mg/ml per day), corresponding to 400 to 600 mg/day in a human weighing 60 kg, which is within the range of doses recommended for supplement and pharmacological use. VitE treatment was initiated on day 4 ending until the ending point.
For tumor volume analysis, each tumor was measured every 3-4 days with a digital caliper beginning on day 7 after the challenge. Tumor volume was calculated using the formula V=(L×W^2)/2 and expressed as mm^3, where V is tumor volume, L is the length of the tumor (longer diameter) and W is the width of the tumor (shorter diameter). Mice were monitored for tumor growth and survival. Measurements were assessed manually by assessing the longest dimension (length, L) and the longest perpendicular dimension (width, W). Tumor volume was calculated using the formula: (L×W^2)/2.

purified SHP1, sequence (P29350 whole entry): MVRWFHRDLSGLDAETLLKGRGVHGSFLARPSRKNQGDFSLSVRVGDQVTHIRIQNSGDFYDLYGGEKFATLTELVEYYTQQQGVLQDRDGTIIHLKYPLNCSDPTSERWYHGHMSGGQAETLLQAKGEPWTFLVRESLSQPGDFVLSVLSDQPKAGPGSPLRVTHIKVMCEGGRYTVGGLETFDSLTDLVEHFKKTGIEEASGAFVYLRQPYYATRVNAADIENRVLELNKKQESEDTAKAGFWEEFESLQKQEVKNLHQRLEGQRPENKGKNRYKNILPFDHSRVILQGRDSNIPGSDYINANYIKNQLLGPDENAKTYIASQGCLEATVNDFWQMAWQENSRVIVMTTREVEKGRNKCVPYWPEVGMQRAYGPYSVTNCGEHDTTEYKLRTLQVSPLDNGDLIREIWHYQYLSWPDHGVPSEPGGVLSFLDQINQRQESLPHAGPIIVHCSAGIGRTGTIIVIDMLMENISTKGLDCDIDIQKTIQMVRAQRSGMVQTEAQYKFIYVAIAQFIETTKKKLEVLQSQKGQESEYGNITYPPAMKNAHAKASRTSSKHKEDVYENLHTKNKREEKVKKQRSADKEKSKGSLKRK

Compound: Cc1c(C)c2c(c(C)c1O)CC[C@@](C)(CCC[C@H](C)CCC[C@H](C)CCCC(C)C)O2 [VitE, D-α-Tocopherol]
- Kd [1]: 39 µM
- IC50 [2]: 50 to 200 µM
- expression of DC activation markers (relative MFI) ([3]; VitE 50 μg/ml 48 h, LPS 100 ng/ml): significantly increased expression of DC activation markers CD40, CD86, HLA-DR
- DC activation compared with other common nutritional supplements ([3]; VitE 50 μg/ml vs VitC, VitD, VitB, VitB2, VitB12, DHA, 48 h then LPS 24 h): most effectively activated DCs
- therapeutic effect [4]: no therapeutic effect

Reference: patent publication US20240424019A1, “SHP1 MODIFIED DENDRITIC CELLS AND EXTRACELLULAR VESICLES DERIVED THEREFROM AND ASSOCIATED METHODS” (BOARD OF REGENTS, THE UNIVERSITY OF TEXAS SYSTEM, priority 2021, published 2024)
